Experimental data published in US20060111409A1, “Medicament for treatment of diabetes” (priority 2002, published 2006).

With `CC(=O)Oc1ccccc1C(=O)Nc1cc(Cl)cc(Cl)c1` as the compound, how does the melting point read?
The melting point was 218 to 219 °C.
